Assay results published in patent US20190083462A1, “PREVENTION OF NSAID ENTEROPATHY WITH MICROBIOTA-DERIVED TRYPTOPHAN-METABOLITE” (THE TEXAS A&M UNIVERSITY SYSTEM, priority 2016, published 2019).

Assays:
[1] = tested on: C57BL/6J mice; test: Fecal calprotectin ELISA; assay type: in vivo; conditions: feces, day 6 vs day 0; once daily gavage
Procedure: Eight- to 10-week-old specific-pathogen-free C57BL/6J mice were purchased and allowed to acclimate for 2 weeks. Mice were fed standardized laboratory rodent diet and sterile water ad libitum. […] Mice were then rehoused on the basis of treatment group assignment, with 5 animals/group-cage. To induce NSAID enteropathy, mice in group 1 were gavaged once daily with indomethacin (5 mg/kg; for 7 days; Sigma Aldrich, St. Louis, Mo.) dissolved in dimethylysulfoxide (DMSO) (Sigma Aldrich, St. Louis, Mo.) and further diluted in phosphate buffered saline (PBS). […] Sigma Aldrich, St. Louis, Mo.) dissolved in sterile water warmed to 55° C. […] All mice were gavaged with equal volumes (200 μL) and equal concentrations of DMSO (0.001%). Feces were collected daily by placing individual animals in sterile plastic cups that were RNase- and DNase-free until they passed feces. The mice were immediately returned to their home cages and the feces immediately flash frozen at -80° C. All animals were euthanized via CO2 asphyxiation on day 8 (i.e., after 7 days of treatment). […] Life Technologies, Carlsbad, Calif.), homogenized, and prepared as a single cell suspension for flow cytometric analysis as previously described (Wang […]. Measuring bacterial load and immune responses in mice infected with Listeria monocytogenes. Journal of Visualized Experiments: JoVE 2011). […]

[2] = tested on: small intestinal mucosa; test: RNA sequencing (RNA-Seq) of the distal small intestinal mucosa; assay type: in vivo, mice
Description: Eight- to 10-week-old specific-pathogen-free C57BL/6J mice were purchased and allowed to acclimate for 2 weeks. Mice were fed standardized laboratory rodent diet and sterile water ad libitum. Mice were randomly divided into the following 4 groups (n=5 mice/group): 1) NSAID (indomethacin); 2) indole; 3) NSAID+indole; and, 4) untreated controls. Mice were then rehoused on the basis of treatment group assignment, with 5 animals/group-cage. To induce NSAID enteropathy, mice in group 1 were gavaged once daily with indomethacin (5 mg/kg; for 7 days; Sigma Aldrich, St. Louis, Mo.) dissolved in dimethylysulfoxide (DMSO) (Sigma Aldrich, St. Louis, Mo.) and further diluted in phosphate buffered saline (PBS). Mice in group 2 received indole by gavage (20 mg/kg; once daily for 7 days; Sigma Aldrich, St. Louis, Mo.) dissolved in sterile water warmed to 55° C. Mice in group 3 received indole co-administered with indomethacin by gavage at the dosages described above. All mice were gavaged with equal volumes (200 μL) and equal concentrations of DMSO (0.001%).
Feces were collected daily by placing individual animals in sterile plastic cups that were RNase- and DNase-free until they passed feces. The mice were immediately returned to their home cages and the feces immediately flash frozen at −80° C. […]
RNA was extracted from the mucosal scrapings using an RNeasy mini kit (QIAGEN, Redwood City, Calif.) following the manufacturer's instructions and including on-column DNase treatment. RNA quantity was determined using a Nanodrop spectrophotometer (Fisher Thermoscientific) and the quality was assessed using the Nano6000 chip on a Bioanalyzer 2100(Agilent Technologies). […] Differentially expressed genes were determined using EdgeR based on the matrix of gene counts (Robinson M D, McCarthy D J, Smyth G K. edgeR: a Bioconductor package for differential expression analysis of digital gene expression data. Bioinformatics (Oxford, England) 2010; 26:139-40). Gene lists were analyzed through use of QIAGEN's Ingenuity® Pathway Analysis (IPA, QIAGEN, Redwood City, Calif. http://www.qiagen.com/ingenuity). […]

Question: `COc1ccc2c(c1)c(CC(=O)O)c(C)n2C(=O)c1ccc(Cl)cc1` [NSAID, indomethacin] was tested. Which fecal calprotectin levels [1] did it give?
Answer: The fecal calprotectin levels was “significantly different from day 0 calprotectin”.

Question: What about the “NF-κB signaling pathway activation” value ([2]; RNA-Seq pathway analysis of mucosal scrapings) of the same compound?
Answer: The value was “activated”.

Question: And the “transcription of pro-inflammatory cytokines (IL-1α, IL-1β, TNF, IL-6) and chemokines (CXCL1, CXCL3, CXCL2, CXCL5, CCL2, CCL7)” value ([2]; small intestinal mucosal transcriptome after 7 days, vs control mice)?
Answer: The value was “significantly up-regulated”.
